The source of these data is patent US9127024B2 (Intrexon Corporation, priority 2013, dated 2015).

For orientation: EC50 means the midpoint of the concentration-response curve. By AUC(0-t) is commonly meant the area under the concentration-time curve up to a stated or last time point. A higher AUC(0-t) goes with high exposure. Usually Cmax stands for the highest concentration seen after dosing. Usually Tmax stands for the time from dosing to the highest level. The term half-life denotes the time needed for the level to fall by half in the phase considered.

Like-named read-outs stand apart in the source and are kept apart here.

Data set [1] addresses RheoSwitch® (CHO-K1_RS-1 cells, firefly Luciferase reporter) (Choristoneura fumiferana, UniProt O77240). The data set can be described thus: in vitro gene switch assay (fLUC Luciferase expression, potency screen). The class given is cell-based. The text has this: Gene switch assays are disclosed, e.g., in U.S. Pat. Nos. 8,076,517; 7,456,315; 7,304,161; and 6,258,603.
CHO-K1 cells were stably transfected with a plasmid (RS-1, FIG. 1) coding for firefly Luciferase (fLUC) under the control of the RheoSwitch® resulting in the stable cell line CHO-K1_RS-1. A master cell bank was created containing approximately 100 vials at 5×10^6 cells per vial. One vial of CHO-K1_RS-1 was thawed and cultured for two weeks prior to each in vitro potency screening.
Twenty-four (24) hours prior to treatment with the control and test compounds the CHO-K1_RS-1 cells were seeded into white-opaque 384-well cell culture plates at 3,600 cells per well in 30 μl of culture medium. The cells were incubated in a humidified CO2 incubator at 37° C. until compound treatment.
Compounds were prepared at 25 mM in 100% dry DMSO and stored at room temperature in sealed 1 ml tubes prior to subsequent dilution and assay. On the day of cell treatment the tubes containing the control and test compounds were sorted and the ligands transferred to a 96-well polypropylene plate for subsequent dilution. The compounds were diluted in 100% dry DMSO in an 8-point, 10-fold dilution series ranging from 25 mM to 2.5 nM using the Biomek FX automated liquid handler.
The diluted compounds were then transferred to each well of 384-well polypropylene plate in quadruplicate resulting in a single 384-well plate with four replicates of each compound dilution in a different quadrant of the plate. Each well on the 384-well plate received 20 μl of diluted compound. The 384-well plates containing diluted compound and the plates containing cells in culture were loaded onto the Biomek FX and 30 nl of compound was delivered to each well containing cells using a 384-pin V&P Scientific Pin Tool. The resulting 1000-fold dilution (30 nl to 30 μl) generated a final dosing range of 25 μM to 2.5 pM in 0.1% DMSO. Two replicate plates were produced to supply a dedicated plate for the Luciferase expression assay and the APH cell viability assay.
The cells were incubated with the compound for 24 hours in a humidified CO2 incubator at 37° C. Following incubation, the cells were assayed for Luciferase expression (fLUC assay) using the Steady Glo assay from Promega. Cells were equilibrated to room temperature for 15 minutes prior to reagent addition. Thirty micro liters (30 μl) of assay reagent was added to each well of the 384-well plate using the Biomek FX. The reagent was incubated with the cells for 10-120 minutes prior to reading on a Molecular Devices Spectramax L luminometer. The assay reagents were prepared as per the manufacturer's instructions.
The Luciferase expression data was normalized to the baseline signal from cells treated with DMSO alone. The ratio of signal from treated cells to vehicle-treated cells was plotted and non-linear regress was performed using Graph Pad Prism software. EC50, (log)EC50 and Hill slope data was generated. Reporter gene expression, e.g., luciferase expression, serves as a proxy for the expression of a gene of interest. See, e.g., US 2009/0123441 and WO 2011/119773.

The nature of data set [2]: Pharmacokinetic (PK) study, oral gavage, plasma LC-MS/MS. The conditions noted are these: for AUC(0-t) / Cmax / Tmax / half-life: female, Sprague Dawley, rat, po, 10 mg/kg; for Clearance: oral clearance.
Procedure: Female Sprague Dawley rats were fasted for at least 8 hours (overnight) prior to oral dosing of the compound via gavage (10 mg/kg; vehicle=2 mg/mL of Capryol 90/Triacetin (1:1, v/v); 3 animals/compound) and weighed prior to dosing. The correct volume of the appropriate formulation was administered based on that day's (animal) body weight. Body weight, dose volume, and dosing time was recorded for each animal. Animals were not fed for at least 4 hours following activator ligand administration.
Approximately 200 μL/blood sample was collected from the catheter sample points in EDTA tubes at each time point from each animal. The exact time of blood collection was recorded for each animal Blood samples were held at 4° C. (wet ice) starting immediately after collection and were centrifuged within 15 minutes from the collection for 12 minutes at 2500 rpm. After centrifugation, plasma samples were stored at ^−80° C. until assay. Sample times were as follows: Day 0: 0, 0.5, 1, 2, 3, 4, 6 and 8 hours; Day 1: 24 hours.
LC-MS/MS Method: Liquid chromatography tandem mass spectrometry with protein precipitation method was used to quantify the compound in rat plasma samples collected from all animals dosed with the ligand. Linearity range was from 1 ng/mL to 1000 ng/mL, with correlation coefficient for calibration curves above 0.99 and analyte quantified within ±15% of target at all calibrator concentrations.
The plasma ligand concentration was calculated by extrapolating the area under the curve values for the samples from the standard curve generated by the Analyst® software program. The ng/mL values for the plasma samples representing all the animals were used to generate the pharmacokinetic (PK) parameters.
The mark [3] stands for this setting: read-out: fLUC assay EC50, 24 hours with compound, 25 μM to 2.5 pM, figure in parentheses after a value not defined.
[4] abbreviates: female Sprague Dawley rats, oral gavage 10 mg/kg, Capryol 90/Triacetin (1:1, v/v).
Where [5] appears, read: AUC0−t, female Sprague Dawley rats, oral gavage 10 mg/kg, Capryol 90/Triacetin (1:1, v/v).
Where [6] appears, read: Cmax, female Sprague Dawley rats, oral gavage 10 mg/kg, Capryol 90/Triacetin (1:1, v/v).
Where [7] appears, read: Tmax, female Sprague Dawley rats, oral gavage 10 mg/kg, Capryol 90/Triacetin (1:1, v/v).
Setting [8] is: half-life, female Sprague Dawley rats, oral gavage 10 mg/kg, Capryol 90/Triacetin (1:1, v/v).
Setting [9] is: read-out: fLUC assay EC50 Run 1, 24 hours with compound, Run 1.
Setting [10] is: read-out: fLUC assay EC50 Run 2, 24 hours with compound, Run 2.

RheoSwitch® (CHO-K1_RS-1 cells, firefly Luciferase reporter), sequence (O77240 1-513): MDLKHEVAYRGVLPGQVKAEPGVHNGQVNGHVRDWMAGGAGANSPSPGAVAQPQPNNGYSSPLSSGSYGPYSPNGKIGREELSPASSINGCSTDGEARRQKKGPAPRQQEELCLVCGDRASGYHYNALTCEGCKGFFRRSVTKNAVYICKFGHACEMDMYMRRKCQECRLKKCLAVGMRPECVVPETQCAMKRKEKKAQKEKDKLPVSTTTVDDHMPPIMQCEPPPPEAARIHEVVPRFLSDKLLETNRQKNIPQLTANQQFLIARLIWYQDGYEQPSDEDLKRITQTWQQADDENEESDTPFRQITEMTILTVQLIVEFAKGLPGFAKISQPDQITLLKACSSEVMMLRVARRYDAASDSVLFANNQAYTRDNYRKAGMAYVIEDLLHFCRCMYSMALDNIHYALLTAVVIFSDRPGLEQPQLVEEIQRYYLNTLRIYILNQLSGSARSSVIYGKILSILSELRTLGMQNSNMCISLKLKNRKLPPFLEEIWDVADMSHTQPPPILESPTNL

In the case of `Cc1cc(C)cc(C(=O)N(NC(=O)c2ccc3c(c2C)OCCOB3O)C(C)(C)C)c1`, the EC50 in data set [1] (setting [3]) was determined as 259 nM. Moreover, in data set [2], the AUC(0-t) was 13200 ng·h/mL, the Cmax turned out to be 1280 ng/mL, the Tmax stood at 2.3 h and the half-life is 11 h. The compound further yielded a Clearance in data set [2] (setting [4]) of 10.2 mL/min/kg.
In turn, `CCC[C@@H](N(NC(=O)c1cccc(OC)c1C)C(=O)c1cc(C)cc(C)c1)C(C)(C)C` [Cpd. A, reference compound] yielded an AUC(0-t) in data set [2] (setting [5]) of 773 ng·h/mL. This compound also showed a Cmax in data set [2] (setting [6]) of 255 ng/mL. Besides, the Tmax in data set [2] (setting [7]) is 4 h. This compound gave a half-life in data set [2] (setting [8]) of 2.1 h. The compound further returned a Clearance in data set [2] (setting [4]) of 213.1 mL/min/kg.
In the case of `CCC[C@@H](N(NC(=O)c1cccc(OC)c1CC)C(=O)c1cc(C)cc(C)c1)C(C)(C)C` [Cpd. B, reference compound], the AUC(0-t) in data set [2] (setting [5]) stood at 888 ng·h/mL. Also, in data set [2] (setting [6]), the Cmax is 116 ng/mL. Moreover, in data set [2] (setting [7]), the Tmax stood at 3.7 h. Further, the half-life in data set [2] (setting [8]) is 5.4 h. The same compound displayed a Clearance in data set [2] (setting [4]) of 183.83 mL/min/kg.
In the case of `Cc1cc(C)cc(C(=O)N(NC(=O)c2cccc(B(O)O)c2F)C(C)(C)C)c1` [Cpd. No. 5], the EC50 in data set [1] (setting [3]) stood at 300 nM. Besides, the AUC(0-t) in data set [2] (setting [5]) was 18800 ng·h/mL. The same compound came in with a Cmax in data set [2] (setting [6]) of 1890 ng/mL. In data set [2] (setting [7]), the Tmax worked out at 4 h. Besides, the half-life in data set [2] (setting [8]) is 4 h. In addition, the Clearance in data set [2] (setting [4]) amounted to 8.88 mL/min/kg.
As to `COCc1ccc(C(=O)NN(C(=O)c2cc(C)cc(C)c2)C(C)(C)C)c(F)c1B(O)O` [Cpd. No. 88, (3-(2-(tert-butyl)-2-(3,5-dimethylbenzoyl)hydrazine-1-carbonyl)-2-fluoro-6-(methoxymethyl)phenyl)boronic acid], the EC50 came to 667 nM in data set [1] (setting [9]) and 840 nM in data set [1] (setting [10]).
The like results for `Cc1cc(C)cc(C(=O)N(NC(=O)c2ccc3c(c2F)COB3O)C(c2ccccc2)C(C)(C)C)c1` (stereo not shown) [Cpd. No. 89, N′-(2,2-dimethyl-1-phenylpropyl)-N′-(3,5-dimethylbenzoyl)-4-fluoro-1-hydroxy-1,3-dihydrobenzo[c][1,2]oxaborole-5-carbohydrazide] were, in that order, approximately 362 nM and approximately 303 nM.
As to `Cc1cc(C)cc(C(=O)N(NC(=O)c2ccc3c(c2C)OCCNB3O)C(C)(C)C)c1` [Cpd. No. 91, N′-(tert-butyl)-N′-(3,5-dimethylbenzoyl)-1-hydroxy-6-methyl-1,2,3,4-tetrahydrobenzo[f][1,4,5]oxazaborepine-7-carbohydrazide], the values for the EC50 in data set [1] (setting [9]) and in data set [1] (setting [10]) were 132 nM and 86.9 nM, respectively.
With `CC[C@@H](N(NC(=O)c1ccc2c(c1C)OCCNB2O)C(=O)c1cc(C)cc(C)c1)C(C)(C)C` [Cpd. No. 92, (R)-N′-(3,5-dimethylbenzoyl)-N′-(2,2-dimethylpentan-3-yl)-1-hydroxy-6-methyl-1,2,3,4-tetrahydrobenzo[f][1,4,5]oxazaborepine-7-carbohydrazide], the values for the EC50 in data set [1] (setting [9]) and in data set [1] (setting [10]) were 187 nM and 116 nM, respectively.
As for `CCC[C@@H](N(NC(=O)c1ccc([B-](F)(F)F)cc1F)C(=O)c1cc(C)cc(C)c1)C(C)(C)C` [Cpd. No. 93, potassium (R)-(4-(2-(3,5-dimethylbenzoyl)-2-(2,2-dimethylhexan-3-yl)hydrazine-1-carbonyl)-3-fluorophenyl)trifluoroborate], the EC50 was determined as 66.8 nM in data set [1] (setting [9]) and 122 nM in data set [1] (setting [10]).
Turning to `COCc1ccc(C(=O)NN(C(=O)c2cc(C)cc(C)c2)C(C)(C)C)c(F)c1B1OC(C)(C)C(C)(C)O1` [Cpd. No. 94, N′-(tert-butyl)-N′-(3,5-dimethylbenzoyl)-2-fluoro-4-(methoxymethyl)-3-(4,4,5,5-tetramethyl-1,3,2-dioxaborolan-2-yl)benzohydrazide], the EC50 was determined as 778 nM in data set [1] (setting [9]) and 1650 nM in data set [1] (setting [10]).
Consider `CCC[C@@H](N(NC(=O)c1ccc(B(O)O)cc1C(C)C)C(=O)c1cc(C)cc(C)c1)C(C)(C)C` [compound 10], for which, in data set [1] (setting [3]), the EC50 turned out to be 1240 nM.
For the compound `Cc1cc(C)cc(C(=O)N(NC(=O)c2ccc(B(O)O)cc2C(C)C)C(C)(C)C)c1` [compound 11], in data set [1] (setting [3]), the EC50 worked out at 14100 nM.
Consider `Cc1cc(C)cc(C(=O)N(NC(=O)c2ccc(B(O)O)cc2F)C(C)(C)C)c1` [compound 12], for which the EC50 in data set [1] (setting [3]) was 271 nM.
In the case of `[2H]C([2H])([2H])c1cc(C(=O)N(NC(=O)c2ccc(B(O)O)cc2F)[C@H](CC)C(C)(C)C)cc(C([2H])([2H])[2H])c1` [compound 15], the EC50 in data set [1] (setting [3]) came to 52.3 nM.
On to `CC[C@@H](N(NC(=O)c1ccc(B(O)O)cc1Cl)C(=O)c1cc(C)cc(C)c1)C(C)(C)C` [compound 20], for which the EC50 in data set [1] (setting [3]) is 183 nM.
Take `Cc1cc(C)cc(C(=O)N(NC(=O)c2ccc(B(O)O)cc2Cl)C(C)(C)C)c1` [compound 21]: in data set [1] (setting [3]), the EC50 stood at 1630 nM.
Still for that read-out and setting: with `CCC[C@@H](N(NC(=O)c1ccc(CCCB2OC(C)(C)C(C)(C)O2)c(OC(F)F)c1C)C(=O)c1cc(C)cc(C)c1)C(C)(C)C` [compound 30] the figure was 50.8 nM; with `CC[C@@H](N(NC(=O)c1cccc(OC)c1C)C(=O)c1cc(C)cc(B2OC(C)(C)C(C)(C)O2)c1)C(C)(C)C` [compound 39], 168 nM.
In the case of `CCc1c(OC)cccc1C(=O)NN(C(=O)c1ccc(B(O)O)cc1)C(C)(C)C` [compound 40], the concentration for a half-maximal effect (EC50) in data set [1] (setting [3]) is 5250 nM.
Regarding `Cc1cc(C)cc(C(=O)N(NC(=O)c2cccc(B3OC(C)(C)C(C)(C)O3)c2C)C(C)(C)C)c1` [compound 43], the EC50 in data set [1] (setting [3]) amounted to 1420 nM.
On to `CC[C@@H](N(NC(=O)c1ccc2c(c1)B(O)OC2)C(=O)c1cc(C)cc(C)c1)C(C)(C)C` [compound 52], for which the EC50 in data set [1] (setting [3]) stood at 287 nM.
Same read-out and setting: as for `CC[C@H](N(NC(=O)c1ccc2c(c1)B(O)OC2)C(=O)c1cc(C)cc(C)c1)C(C)(C)C` [compound 53], the figure is 1000 nM.
Take `[2H]C([2H])([2H])c1cc(C(=O)N(NC(=O)c2ccc3c(c2F)B(O)OC3)[C@H](CC)C(C)(C)C)cc(C([2H])([2H])[2H])c1` [compound 60]: the EC50 in data set [1] (setting [3]) turned out to be 123 nM.
On the same count and under the same terms, with `Cc1cc(C)cc(C(=O)N(CC(C)(C)C)NC(=O)c2ccc3c(c2C)OCCOB3O)c1` [compound 71] the figure was 430 nM; with `Cc1cc(Cl)cc(C(=O)N(CC(C)(C)C)NC(=O)c2ccc3c(c2C)OCCOB3O)c1` [compound 72], 443 nM.
Turning to `CCC(C)(C)N(NC(=O)c1ccc2c(c1C)OCCOB2O)C(=O)c1cc(C)cc(C)c1` [compound 76], the EC50 in data set [1] (setting [3]) is 358 nM.
For `[2H]C([2H])([2H])c1cc(C(=O)N(NC(=O)c2ccc3c(c2C)OCCOB3O)C(C)(C)CC)cc(C([2H])([2H])[2H])c1` [compound 77], the EC50 in data set [1] (setting [3]) was determined as 181 nM.
With `CC[C@H](N(NC(=O)c1ccc2c(c1C)OCCOB2O)C(=O)c1cc(C)cc(C)c1)C(C)(C)C` [compound 80], in data set [1] (setting [3]), the EC50 came out at 867 nM.
`[2H]C([2H])([2H])c1cc(C(=O)N(NC(=O)c2ccc3c(c2C)OCCOB3O)[C@@H](CC)C(C)(C)C)cc(C([2H])([2H])[2H])c1` [compound 81]: the EC50 in data set [1] (setting [3]) stood at 564 nM.
On to `CCOCc1ccc(C(=O)NN(C(=O)c2cc(C)cc(C)c2)[C@H](CC)C(C)(C)C)c(F)c1B(O)O` [compound 90, (R)-(3-(2-(3,5-dimethylbenzoyl)-2-(2,2-dimethylpentan-3-yl)hydrazine-1-carbonyl)-6-(ethoxymethyl)-2-fluorophenyl)boronic acid], for which the concentration for a half-maximal effect (EC50) is 389 nM in data set [1] (setting [9]) and approximately 266 nM in data set [1] (setting [10]).
